Source: patent US20250064990A1, “METHODS OF SCREENING FOR VMAT2 INHIBITORS” (Neurocrine Biosciences, Inc., priority 2021, published 2025)

Target: VMAT2 (Homo sapiens, UniProt Q05940)
Assay: VMAT2 target occupancy of single oral doses of NBI-750142 in healthy adult male subjects, [^18F]AV-133 PET
Type: in vivo
Set-up: from tissue; host or cells: brain (caudate, putamen, midbrain) of living healthy adult male subjects
Settings: for NBI-750142 T1 Occ / [^18F]AV-133 BPND T1: T1 ([…] post dose); for NBI-750142 T2 Occ / [^18F]AV-133 BPND T2: T2 (18 h post dose)
Method: This study was conducted to evaluate the brain penetration and target engagement of VMAT2 after single oral doses of NBI-750142 in healthy subjects. This PET study assessed the engagement of NBI-750142 with VMAT2 in vivo at two time-points after dosing. A sequential-cohort design allowed for the safety, target-occupancy, and available pharmacokinetic (PK) data from each prior cohort to be evaluated before selection of the dose level for the next cohort. A range of NBI-750142 doses (max. 200 mg) were studied to explore the relationship between NBI-750142 plasma concentrations and engagement of VMAT2 in selected brain regions.
This was a Phase 1 single-center, open-label, single-dose, target occupancy study of NBI-750142 in up to 12 healthy male subjects using [^18F]AV-133 PET imaging. […] A total of 12 subjects completed the study. Subjects enrolled in the study were required to report to the clinical research site for 4 separate occasions, detailed below.
Two subjects were initially enrolled in each dose cohort. Each subject received one brain structural magnetic resonance imaging (MRI) scan during screening and up to 3 [^18F]AV-133 PET scans (1 baseline and up to 2 follow-up scans after receiving a single dose of NBI-750142). Subjects enrolled in the first cohort received a single dose of 100 mg of NBI-750142 orally on Day 1. PET scans occurred on Day 1 at approximately 1.5 hours post NBI-750142 dose and on Day 2 at approximately 18 hours post NBI-750142 dose. Subjects were then discharged from the study center after all Day 3 procedures and assessments were completed.
Subjects were administered a single dose of [^18F]AV-133 intravenously over 3 minutes using an infusion pump (approximately 3.33 mL per minute) through a venous catheter followed by a 10 mL saline flush. Dynamic PET imaging of the brain was acquired over 120 min following radiotracer injection on a Siemens Biograph 6 PET/CT camera according to the following protocol: • CT scan of the head • [^18F]AV-133 injection (T=0 min) • Emission scan: 6×30 sec, 4×1 min, 4×2 min, 21×5 min (0-120 min)
Reconstructed PET imaging data volumes were transferred to the image processing PMOD software package (PMOD Technologies, Zurich, Switzerland) where the images were motion and decay corrected, realigned onto the subject MRI and subsequently normalized into the standard MNI (Montreal Neurological Institute) space where volumes of interest (VOIs) were defined from a template (see e.g., Hammers et al, Adult brain maximum probability map (“Hammersmith atlas”; n30r83) in MNI space. 2008). The subject MRI was segmented into grey matter, white matter, and CSF maps. Average activity concentration (kBq/cc) within each VOI, constrained to grey matter voxels for cortical regions, were determined and time activity curves (TACs) were generated. TACs were extracted from the following VOIs: caudate and putamen (striatum), midbrain, cerebellar and occipital cortices. TACs and were expressed in standard uptake value (SUV) units (g/mL) by normalizing with the weight of the subject and the injected dose. The occipital cortex was used as a reference region to normalize activity in target regions to generate SUVr images. For visualization, standard uptake value ratio (SUVr) images were computed between 60-120 min. Non-displaceable binding potential (BPND), the primary outcome measure, was estimated with noninvasive Logan graphical analysis (NI-LGA, t*=20 min) in caudate, putamen and midbrain using the occipital cortex as the reference region. Percent measured occupancy (OM) of NBI-750142 (drug) by region was computed according to the Equation 3-1 at each of the post-dose timepoints, T1 (1.5 h post dose) and T2 (18 h post dose).
Post-hoc exploratory analysis applied an Upregulation model (Equation 3-3), in order to account for the apparent ‘negative occupancy’ values observed at T2 (BPND values at T2 were unexpectedly higher than corresponding BPND values at baseline). […]

[1] = Cohort 1, 100 mg, Subject 1, Caudate
[2] = Cohort 1, 100 mg, Subject 1, Midbrain
[3] = Cohort 1, 100 mg, Subject 1, Putamen
[4] = Cohort 1, 100 mg, Subject 2, Caudate
[5] = Cohort 1, 100 mg, Subject 2, Midbrain
[6] = Cohort 1, 100 mg, Subject 2, Putamen
[7] = Cohort 2, 200 mg, Subject 1, Caudate
[8] = Cohort 2, 200 mg, Subject 1, Midbrain
[9] = Cohort 2, 200 mg, Subject 1, Putamen
[10] = Cohort 2, 200 mg, Subject 2, Caudate
[11] = Cohort 2, 200 mg, Subject 2, Midbrain
[12] = Cohort 2, 200 mg, Subject 2, Putamen
[13] = Cohort 3, 60 mg, Subject 1, Caudate
[14] = Cohort 3, 60 mg, Subject 1, Midbrain
[15] = Cohort 3, 60 mg, Subject 1, Putamen
[16] = Cohort 3, 60 mg, Subject 2, Caudate
[17] = Cohort 3, 60 mg, Subject 2, Midbrain
[18] = Cohort 3, 60 mg, Subject 2, Putamen
[19] = Cohort 4, 60 mg, Subject 1, Caudate

Sequence of VMAT2 (Q05940 whole entry): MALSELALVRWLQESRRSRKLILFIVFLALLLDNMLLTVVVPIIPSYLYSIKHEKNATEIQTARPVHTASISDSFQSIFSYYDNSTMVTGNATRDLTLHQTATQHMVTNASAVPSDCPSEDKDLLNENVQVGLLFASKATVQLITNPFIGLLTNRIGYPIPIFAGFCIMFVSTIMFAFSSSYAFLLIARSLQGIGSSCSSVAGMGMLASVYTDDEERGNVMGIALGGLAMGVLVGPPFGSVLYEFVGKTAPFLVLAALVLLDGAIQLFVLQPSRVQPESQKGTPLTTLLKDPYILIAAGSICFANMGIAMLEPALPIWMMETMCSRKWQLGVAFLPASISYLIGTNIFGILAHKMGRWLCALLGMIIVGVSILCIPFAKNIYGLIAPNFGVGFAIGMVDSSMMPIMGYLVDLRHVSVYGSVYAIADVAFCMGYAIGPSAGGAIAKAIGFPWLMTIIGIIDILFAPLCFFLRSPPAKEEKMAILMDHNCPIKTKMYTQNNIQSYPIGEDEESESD

COc1cc2c(cc1OC)[C@H]1CN(C)[C@H](CC(C)(C)C)CN1CC2 [NBI-750142]
[^18F]AV-133 striatal uptake at T1 vs baseline (10 mg, cohorts 5A and 5B): did not show reduction in uptake | [^18F]AV-133 striatal uptake at T1 vs baseline (60 mg, cohorts 3 and 4): showed variability between subjects | [^18F]AV-133 striatal uptake at T1 vs baseline (100 mg and 200 mg doses, both subjects): markedly reduced uptake | NBI-750142 T1 Occ [1]: 72% | [^18F]AV-133 BPND T1 [1]: 0.34 | NBI-750142 T2 Occ [1]: 3% | [^18F]AV-133 BPND T2 [1]: 1.15 | NBI-750142 T1 Occ [2]: 59% | [^18F]AV-133 BPND T1 [2]: 0.15 | NBI-750142 T2 Occ [2]: 5% | [^18F]AV-133 BPND T2 [2]: 0.34 | NBI-750142 T1 Occ [3]: 54% | [^18F]AV-133 BPND T1 [3]: 0.95 | NBI-750142 T2 Occ [3]: −2% | [^18F]AV-133 BPND T2 [3]: 2.11 | NBI-750142 T1 Occ [4]: 80% | [^18F]AV-133 BPND T1 [4]: 0.38 | NBI-750142 T2 Occ [4]: 15% | [^18F]AV-133 BPND T2 [4]: 1.60 | NBI-750142 T1 Occ [5]: 60% | [^18F]AV-133 BPND T1 [5]: 0.20 | NBI-750142 T2 Occ [5]: 30% | [^18F]AV-133 BPND T2 [5]: 0.36 | NBI-750142 T1 Occ [6]: 73% | [^18F]AV-133 BPND T1 [6]: 0.66 | NBI-750142 T2 Occ [6]: 13% | [^18F]AV-133 BPND T2 [6]: 2.09 | Occupancy at T2 in striatum (Cohort 1 at 100 mg, subject 1, 18 h post dose): 1% | Occupancy at T2 in striatum (Cohort 1 at 100 mg, subject 2, 18 h post dose): 14% | NBI-750142 T1 Occ [7]: 75% | [^18F]AV-133 BPND T1 [7]: 0.40 | NBI-750142 T2 Occ [7]: −30% | [^18F]AV-133 BPND T2 [7]: 2.06 | NBI-750142 T1 Occ [8]: 63% | [^18F]AV-133 BPND T1 [8]: 0.14 | NBI-750142 T2 Occ [8]: −33% | [^18F]AV-133 BPND T2 [8]: 0.49 | NBI-750142 T1 Occ [9]: 69% | [^18F]AV-133 BPND T1 [9]: 0.74 | NBI-750142 T2 Occ [9]: −26% | [^18F]AV-133 BPND T2 [9]: 3.00 | NBI-750142 T1 Occ [10]: 72% | [^18F]AV-133 BPND T1 [10]: 0.51 | NBI-750142 T2 Occ [10]: −7% | [^18F]AV-133 BPND T2 [10]: 1.91 | NBI-750142 T1 Occ [11]: 60% | [^18F]AV-133 BPND T1 [11]: 0.23 | NBI-750142 T2 Occ [11]: 7% | [^18F]AV-133 BPND T2 [11]: 0.53 | NBI-750142 T1 Occ [12]: 67% | [^18F]AV-133 BPND T1 [12]: 0.88 | NBI-750142 T2 Occ [12]: −5% | [^18F]AV-133 BPND T2 [12]: 2.81 | Occupancy at T2 in striatum (Cohort 2 at 200 mg, subject 1, 18 h post dose): −28% | Occupancy at T2 in striatum (Cohort 2 at 200 mg, subject 2, 18 h post dose): −6% | NBI-750142 T1 Occ [13]: 37% | [^18F]AV-133 BPND T1 [13]: 1.04 | NBI-750142 T2 Occ [13]: −15% | [^18F]AV-133 BPND T2 [13]: 1.93 | NBI-750142 T1 Occ [14]: 47% | [^18F]AV-133 BPND T1 [14]: 0.20 | NBI-750142 T2 Occ [14]: −5% | [^18F]AV-133 BPND T2 [14]: 0.39 | NBI-750142 T1 Occ [15]: 34% | [^18F]AV-133 BPND T1 [15]: 1.31 | NBI-750142 T2 Occ [15]: −12% | [^18F]AV-133 BPND T2 [15]: 2.22 | NBI-750142 T1 Occ [16]: 6% | [^18F]AV-133 BPND T1 [16]: 1.62 | NBI-750142 T2 Occ [16]: −20% | [^18F]AV-133 BPND T2 [16]: 2.07 | NBI-750142 T1 Occ [17]: 16% | [^18F]AV-133 BPND T1 [17]: 0.44 | NBI-750142 T2 Occ [17]: −22% | [^18F]AV-133 BPND T2 [17]: 0.64 | NBI-750142 T1 Occ [18]: 3% | [^18F]AV-133 BPND T1 [18]: 2.14 | NBI-750142 T2 Occ [18]: −22% | [^18F]AV-133 BPND T2 [18]: 2.70 | Occupancy at T2 in striatum (Cohort 3 at 60 mg, subject 1, 18 h post dose): −14% | Occupancy at T2 in striatum (Cohort 3 at 60 mg, subject 2, 18 h post dose): −21% | NBI-750142 T1 Occ [19]: 50% | [^18F]AV-133 BPND T1 [19]: 0.78 | NBI-750142 T2 Occ [19]: −8%
